Assay results as given in patent publication US20250019370A1, “L-LYSINE SALT OF 4-CHLORO-5-[4-(2,6-DICHLOROPHENYL)SULFONYLPIPERAZIN-1-YL]-1-BENZOFURAN-2-CARBOXYLIC ACID AND VARIOUS FORMS THEREOF” (ENYO PHARMA, priority 2023, published 2025).

Legend:
[1] = Solubility kinetics in FaSSIF medium; type: physicochemical; details: after 24 h; for Soluble fraction: 37° C.; for pH: pH given with the soluble fraction
Experimental: The solubility kinetics of the salt forms as well as the native EYP001 free acid form were determined in FaSSIF and FeSSIF media, and in a pH 4.5 acetate buffer as detailed below: The samples were prepared by adding an excess of each tested bulk (salt or native EYP001) to a given volume of test medium. The suspension was stirred by orbital stirring over 1 hour (in both pH 4.5 acetate buffer and FeSSIF medium) or 24 hours ([…] medium) at 37° C., protected from light. In FaSSIF medium, the soluble concentration was assessed after 24 hours of stirring. […] At each time point, the “supernatant” was isolated and diluted in a solvent mixture allowing its injection into the chromatographic system. The concentration in solution in the test medium was determined by HPLC with external standardization.

[2] = Pharmacokinetic study Experiment #1, oral administration in rats; type: in vivo, rat; details: 50 mg EqEYP001/Kg, male rats, aqueous formulation
Experimental: In a first study (Experiment #1), EYP001, EYP001 Meglumine salt, and EYP001 L-lysine salt Form I in aqueous formulations (0.5% CMC, 0.25% Tween 80, water) were orally administrated at a dose of 50 mg EqEYP001/Kg in 3 male rats for each compound. Blood samples were taken at 0.25 h, 0.5 h, 1 h, 2 h, 4 h, 6 h, 8 h, 12 h, and 24 h after oral administration.

[3] = Solubility kinetics in pH 4.5 acetate buffer; type: physicochemical; details: 37 ° C.
Experimental: The solubility kinetics of the salt forms as well as the native EYP001 free acid form were determined in FaSSIF and FeSSIF media, and in a pH 4.5 acetate buffer as detailed below:
The samples were prepared by adding an excess of each tested bulk (salt or native EYP001) to a given volume of test medium. The suspension was stirred by orbital stirring over 1 hour (in both pH 4.5 acetate buffer and FeSSIF medium) or 24 hours (inFaSSIF medium) at 37° C., protected from light.
In pH 4.5 acetate buffer, the soluble concentration was assessed after 0.5 hour and 1 hour of stirring.
At each time point, the “supernatant” was isolated and diluted in a solvent mixture allowing its injection into the chromatographic system. The concentration in solution in the test medium was determined by HPLC with external standardization.

[4] = Pharmacokinetic study Experiment #4, oral administration in rats; type: in vivo, rat; details: 10 mg EqEYP001/Kg
Experimental: In a fourth study (Experiment #4), EYP001, EYP001 L-lysine salt amorphous Form and EYP001 L-lysine salt Form VI in aqueous formulations (0.5% CMC, 0.25% Tween 80, water) were orally administrated at a dose of 10 mg EqEYP001/Kg in 8 male rats for each compound (4 rats on day 1 and 4 rats on day 2 for each compound). Blood samples were taken at 0.25 h, 0.5 h, 1 h, 2 h, 4 h, 6 h, 8 h, 12 h, and 24 h after oral administration.

[5] = Thermogravimetric analysis (TGA), mass losses upon heating; type: physicochemical
Experimental: Thermogravimetric analysis was performed on a TA Instruments TGA Hi-Res 2950 apparatus equipped with an evolved gas analysis furnace. A sample was placed in an opened aluminium basket and analysed according to the following conditions: […]

[6] = Solubility kinetics in FeSSIF medium; type: physicochemical; details: for Soluble fraction: 37 ° C.
Experimental: The solubility kinetics of the salt forms as well as the native EYP001 free acid form were determined in FaSSIF and FeSSIF media, and in a pH 4.5 acetate buffer as detailed below: The samples were prepared by adding an excess of each tested bulk (salt or native EYP001) to a given volume of test medium. […] In FaSSIF medium, the soluble concentration was assessed after 24 hours of stirring. […] At each time point, the “supernatant” was isolated and diluted in a solvent mixture allowing its injection into the chromatographic system. The concentration in solution in the test medium was determined by HPLC with external standardization.

[7] = Dynamic Vapor Sorption (DVS) analysis (gas water sorption); type: physicochemical; details: for water uptake upon sorption (DVS): 25° C./95% RH; for hygroscopicity (DVS): hygroscopic above 2% mass gain at 25° C./60% RH
Experimental: The dynamic vapor sorption (DVS) analysis (gas water sorption) was performed on a DVS-Intrinsic incubator (SMS Ltd), equipped with DVS-Intrinsic Control Software 1.0. The sample, placed in an aluminium basket holder, was submitted to a full-cycle analysis (sorption followed by desorption cycle) under the following conditions:
The sample was first pre-dried under a stream of dry air until a stabilized sample mass was observed. Then, the relative humidity was increased by 5% increments. At each step, the sample mass was allowed to increase until equilibrium is reached (according to a given dm/dt target), and then a new relative humidity rise occurred. Relative humidity was ramped up to 95%. After equilibration at this point, desorption began in a similar stepwise manner, with sample mass decrease again allowed to stabilize after each incremental humidity decrease.
With both segments of the above-described method, the sample mass recording allowed describing of the whole vapor water sorption/desorption behaviour versus relative humidity.

[8] = after 0.5 h, listed as EYP001 L-Lysine salt (Form VI)
[9] = after 1 h, listed as EYP001 L-Lysine salt (Form VI)
[10] = male rats, aqueous formulation, listed as EYP001 L-lysine salt (Form VI)
[11] = male rats, versus EYP001 free acid, listed as EYP001 L-lysine salt (Form VI)
[12] = listed as EYP001 L-lysine salt (form VI)

Q: What does the source list for NC1CCCCC1.O=C(O)c1cc2c(Cl)c(N3CCN(S(=O)(=O)c4c(Cl)cccc4Cl)CC3)ccc2o1?
A: Soluble fraction [1]: 0.19 mg/mL of EYP001; pH [1]: 6.5

Q: Which Soluble fraction [1] does the source give for C1COCCN1.O=C(O)c1cc2c(Cl)c(N3CCN(S(=O)(=O)c4c(Cl)cccc4Cl)CC3)ccc2o1 [EYP001 Morpholine salt, reference compound] here?
A: 0.22 mg/mL of EYP001

Q: And the pH [1]?
A: 6.5

Q: Which “Mean AUC0-24” value [2] does the source give for CNCC(O)C(O)C(O)C(O)CO.O=C(O)c1cc2c(Cl)c(N3CCN(S(=O)(=O)c4c(Cl)cccc4Cl)CC3)ccc2o1 [EYP001 Meglumine salt, reference compound] here?
A: 33076 ng·h/mL

Q: And the “Mean Cmax” value [2]?
A: 5372 ng/mL

Q: Which results are given for O=C(O)c1cc2c(Cl)c(N3CCN(S(=O)(=O)c4c(Cl)cccc4Cl)CC3)ccc2o1.c1ccc(CCNCc2ccccc2)cc1 [EYP001 Benethamine salt (polymorph I)]?
A: Soluble fraction ([3]; after 0.5 h): 0.001 mg/mL of EYP001; Soluble fraction ([3]; after 1 h): 0.001 mg/mL of EYP001

Q: With O=C(O)c1cc2c(Cl)c(N3CCN(S(=O)(=O)c4c(Cl)cccc4Cl)CC3)ccc2o1.c1ccc(CCNCc2ccccc2)cc1 [EYP001 Benethamine salt (Polymorph II)] as the molecule, how does the Soluble fraction [1] read?
A: 0.01 mg/mL of EYP001

Q: And the pH [1]?
A: 6.5

Q: Which Soluble fraction ([3]; after 0.5 h) does the source give for O=C(O)c1cc2c(Cl)c(N3CCN(S(=O)(=O)c4c(Cl)cccc4Cl)CC3)ccc2o1.c1ccc(CCNCc2ccccc2)cc1 [EYP001 Benethamine salt (polymorph II)] here?
A: 0.0002 mg/mL of EYP001

Q: And the Soluble fraction ([3]; after 1 h)?
A: 0.0003 mg/mL of EYP001

Q: For NCCCC[C@H](N)C(=O)O.O=C(O)c1cc2c(Cl)c(N3CCN(S(=O)(=O)c4c(Cl)cccc4Cl)CC3)ccc2o1 [EYP001 L-lysine salt Form VI, L-lysine salt of 4-chloro-5-[4-(2,6-dichlorophenyl)sulfonylpiperazin-1-yl]-1-benzofuran-2-carboxylic acid], which Soluble fraction [3, 8] is on record?
A: 0.035 mg/mL of EYP001

Q: What about the Soluble fraction [3, 9] of the same molecule?
A: 0.033 mg/mL of EYP001

Q: What about the “Mean AUClast” value [4, 10] of the same molecule?
A: 4612.3 ng·h/mL

Q: And the “Mean Cmax” value [4, 10]?
A: 2399.2 ng/mL

Q: What about the “% increase/EYP001 (AUClast)” value [4, 11] of the same molecule?
A: +36.6%

Q: And the “% increase/EYP001 (Cmax)” value [4, 11]?
A: +66.1%

Q: And the “C max compared to EYP001 free acid” value ([4]; rat)?
A: higher C max

Q: What about the “exposure (AUC0-24) compared to EYP001 free acid” value ([4]; rat) of the same molecule?
A: superior exposure

Q: And the “variability of the C max (CV %) compared to EYP001 free acid” value ([4]; rat)?
A: strongly reduced

Q: And the “variability of the exposure (CV %) compared to EYP001 free acid” value ([4]; rat)?
A: strongly reduced

Q: And the “Start (° C.)” value ([5]; TGA step 1)?
A: 223 °C

Q: What about the “Stop (° C.)” value ([5]; TGA step 1) of the same molecule?
A: 275 °C

Q: And the “TEndset (° C.)” value ([5]; TGA step 1)?
A: 262 °C

Q: What about the “TOnset (° C.)” value ([5]; TGA step 1) of the same molecule?
A: 251 °C

Q: What about the “Δm (%) mass loss upon heating” value ([5]; TGA step 1) of the same molecule?
A: 11.2%

Q: And the “Start (° C.)” value ([5]; TGA step 2)?
A: 275 °C

Q: And the “Stop (° C.)” value ([5]; TGA step 2)?
A: 480 °C

Q: What about the “TEndset (° C.)” value ([5]; TGA step 2) of the same molecule?
A: 344 °C

Q: And the “TOnset (° C.)” value ([5]; TGA step 2)?
A: 313 °C

Q: And the “Δm (%) mass loss upon heating” value ([5]; TGA step 2)?
A: 58.4%

Q: What about the “onset temperature of thermal decomposition (TGA)” value ([5]; heater ramp 10 ° C./min, nitrogen, listed as EYP001 L-lysine salt (Form VI)) of the same molecule?
A: 251 °C

Q: And the “mass loss before the beginning of thermal decomposition (TGA)” value ([5]; upon heating, listed as EYP001 L-lysine salt (Form VI))?
A: no mass loss

Q: And the Soluble fraction [6, 8]?
A: 0.50 mg/mL of EYP001

Q: What about the Soluble fraction [6, 9] of the same molecule?
A: 0.75 mg/mL of EYP001

Q: And the Soluble fraction ([6]; after 2 h, listed as EYP001 L-Lysine salt (Form VI))?
A: 0.90 mg/mL of EYP001

Q: And the Soluble fraction ([6]; after 24 h, listed as EYP001 L-Lysine salt (Form VI))?
A: 1.18 mg/mL of EYP001

Q: And the pH ([6]; pH given with the soluble fraction, after 2 h)?
A: (pH = 4.9)

Q: What about the pH ([6]; pH printed with the soluble fraction, after 0.5 h, listed as EYP001 L-Lysine salt (Form VI)) of the same molecule?
A: (pH = 5.0)

Q: What about the pH ([6]; pH printed with the soluble fraction, after 1 h, listed as EYP001 L-Lysine salt (Form VI)) of the same molecule?
A: (pH = 4.9)

Q: What about the pH ([6]; pH printed with the soluble fraction, after 24 h, listed as EYP001 L-Lysine salt (Form VI)) of the same molecule?
A: (pH = 4.9)

Q: And the “mass loss during preliminary drying phase” value ([7]; 25° C./0% RH before sorption, listed as EYP001 L-lysine salt (Form VI))?
A: no significant mass loss

Q: What about the “water uptake (DVS)” value ([7]; 25° C./60% RH, listed as EYP001 L-lysine salt form VI) of the same molecule?
A: 0.07%

Q: And the “water uptake upon sorption (DVS)” value ([7]; listed as EYP001 L-lysine salt (Form VI))?
A: 0.4%

Q: And the “water uptake upon sorption (DVS)” value [7, 12]?
A: 0.4%

Q: What about the maximum hysteresis sorption/desorption ([7]; 25° C., listed as EYP001 L-lysine salt (Form VI)) of the same molecule?
A: 0.15%

Q: And the “hygroscopicity (DVS)” value [7, 12]?
A: non-hygroscopic

Q: What about the “hygroscopicity (DVS)” value ([7]; listed as EYP001 L-lysine salt form VI) of the same molecule?
A: non-hygroscopic

Q: For O=C(O)c1cc2c(Cl)c(N3CCN(S(=O)(=O)c4c(Cl)cccc4Cl)CC3)ccc2o1.c1ccc(CCNCc2ccccc2)cc1 [EYP001 Benethamine salt (Polymorph I)], which Soluble fraction [1] is on record?
A: 0.01 mg/mL of EYP001

Q: What about the pH [1] of the same molecule?
A: 6.6

Q: Which results are given for O=C([O-])c1cc2c(Cl)c(N3CCN(S(=O)(=O)c4c(Cl)cccc4Cl)CC3)ccc2o1.[K+] [EYP001 Potassium salt, reference compound]?
A: Soluble fraction ([6]; after 0.5 h): 0.35 mg/mL of EYP001; Soluble fraction ([6]; after 1 h): 0.38 mg/mL of EYP001; pH ([6]; pH given with the soluble fraction, after 0.5 h): (pH = 5.0); pH ([6]; pH given with the soluble fraction, after 1 h): (pH = 5.0)
